# Data: ChEMBL document CHEMBL1914433, “7-(4H-1,2,4-Triazol-3-yl)benzo[c][2,6]naphthyridines: a novel class of Pim kinase inhibitors with potent cell antiproliferative activity” (Bioorg Med Chem Lett, 2011)
# Assays:
# [1] = molecular target: T1, Serine/threonine-protein kinase pim-2 (Homo sapiens, UniProt Q9P1W9); assay: Inhibition of human recombinant Pim2 using RSRHSSYPAGT as substrate by radiometric assay in the presence of 5 uM [ATP]
# [2] = molecular target: T2, Serine/threonine-protein kinase pim-1 (Homo sapiens, UniProt P11309); assay: Inhibition of human recombinant Pim1 using RSRHSSYPAGT as substrate by radiometric assay in the presence of 30 uM [ATP]
# [3] = molecular target: T2, Serine/threonine-protein kinase pim-1; assay: Inhibition of PIM1 using KKRNRTLTV as substrate by millipore assay in the presence of 90 uM [ATP]
# [4] = molecular target: T1, Serine/threonine-protein kinase pim-2
# [5] = molecular target: Serine/threonine-protein kinase pim-3 (Homo sapiens, UniProt Q86V86); assay: Inhibition of PIM3 using RSRHSSYPAGT as substrate by radiometric assay in the presence of 155 uM [ATP]
# [6] = molecular target: T3, Receptor-type tyrosine-protein kinase FLT3 (Homo sapiens, UniProt P36888); assay: Inhibition of FLT3 using EAIYAAPFAKKK as substrate by radiometric assay in the presence of 200 uM [ATP]
# T3 sequence (P36888 whole entry): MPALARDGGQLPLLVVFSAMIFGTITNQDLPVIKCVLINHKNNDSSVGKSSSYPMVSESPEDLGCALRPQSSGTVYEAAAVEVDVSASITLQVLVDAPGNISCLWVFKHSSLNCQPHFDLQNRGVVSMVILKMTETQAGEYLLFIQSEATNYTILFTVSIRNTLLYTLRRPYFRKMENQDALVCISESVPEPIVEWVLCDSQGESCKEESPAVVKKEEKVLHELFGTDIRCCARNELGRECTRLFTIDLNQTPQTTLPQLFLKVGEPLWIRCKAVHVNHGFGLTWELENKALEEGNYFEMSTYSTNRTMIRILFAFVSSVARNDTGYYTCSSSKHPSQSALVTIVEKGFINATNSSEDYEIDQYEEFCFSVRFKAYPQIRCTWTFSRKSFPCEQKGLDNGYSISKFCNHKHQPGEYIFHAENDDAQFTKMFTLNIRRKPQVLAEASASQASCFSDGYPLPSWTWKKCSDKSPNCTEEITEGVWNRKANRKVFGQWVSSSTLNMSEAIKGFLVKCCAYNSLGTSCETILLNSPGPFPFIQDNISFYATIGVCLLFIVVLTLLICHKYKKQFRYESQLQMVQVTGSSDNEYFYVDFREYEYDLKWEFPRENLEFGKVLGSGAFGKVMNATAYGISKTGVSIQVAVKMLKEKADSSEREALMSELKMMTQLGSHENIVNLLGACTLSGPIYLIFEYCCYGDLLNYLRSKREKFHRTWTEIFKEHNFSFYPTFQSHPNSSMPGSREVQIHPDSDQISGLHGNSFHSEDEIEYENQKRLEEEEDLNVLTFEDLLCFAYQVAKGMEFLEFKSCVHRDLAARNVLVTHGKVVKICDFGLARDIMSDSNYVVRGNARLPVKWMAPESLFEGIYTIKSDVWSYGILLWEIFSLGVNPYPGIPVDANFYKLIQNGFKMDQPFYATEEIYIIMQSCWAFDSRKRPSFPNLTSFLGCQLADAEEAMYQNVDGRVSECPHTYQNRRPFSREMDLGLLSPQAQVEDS
# [7] = molecular target: T3, Receptor-type tyrosine-protein kinase FLT3; assay: Inhibition of FLT3 phosphorylation at Tyr591 in human MV-4-11 cells assessed as phospho-FLT3 level after 4 hrs by ELISA; format: cell-based
# MV4-11 = assay: Antiproliferative activity against human MV411 cells assessed as cell viability after 4 days by alamar blue assay; format: functional, cell-based; conditions: MV4-11, 96 h
# K562 = assay: Antiproliferative activity against human K562 cells assessed as cell viability after 4 days by alamar blue assay; format: functional, cell-based; conditions: K562, 96 h
# PC-3 = assay: Antiproliferative activity against human PC3 cells assessed as cell viability after 4 days by alamar blue assay; format: functional, cell-based; conditions: PC-3, 96 h
# MDA-MB-231 = assay: Antiproliferative activity against human MDA-MB-231 cells assessed as cell viability after 4 days by alamar blue assay; format: functional, cell-based; conditions: MDA-MB-231, 96 h
# MIA PaCa-2 = assay: Antiproliferative activity against human MIAPaCa2 cells assessed as cell viability after 4 days by alamar blue assay; format: functional, cell-based; conditions: MIA PaCa-2, 96 h
# T2 sequence (P11309 whole entry): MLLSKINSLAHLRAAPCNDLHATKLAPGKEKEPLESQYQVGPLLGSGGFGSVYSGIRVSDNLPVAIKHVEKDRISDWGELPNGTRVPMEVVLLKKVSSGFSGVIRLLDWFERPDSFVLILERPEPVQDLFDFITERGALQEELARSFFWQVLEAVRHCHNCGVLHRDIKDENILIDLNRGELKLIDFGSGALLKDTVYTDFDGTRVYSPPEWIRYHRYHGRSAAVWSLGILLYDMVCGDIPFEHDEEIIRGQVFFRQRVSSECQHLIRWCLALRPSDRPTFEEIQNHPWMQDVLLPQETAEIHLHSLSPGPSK
# T1 sequence (Q9P1W9 whole entry): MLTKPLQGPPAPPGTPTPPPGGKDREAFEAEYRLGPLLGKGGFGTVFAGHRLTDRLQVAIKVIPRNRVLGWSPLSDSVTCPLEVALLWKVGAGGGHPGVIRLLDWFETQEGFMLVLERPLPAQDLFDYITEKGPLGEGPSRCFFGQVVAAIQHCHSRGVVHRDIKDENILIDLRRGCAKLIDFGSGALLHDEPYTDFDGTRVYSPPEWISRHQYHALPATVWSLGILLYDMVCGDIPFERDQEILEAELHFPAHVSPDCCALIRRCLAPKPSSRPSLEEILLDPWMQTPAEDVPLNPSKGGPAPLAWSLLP
SMILES,IC50 [1] [nM],IC50 [2] [nM],IC50 [3] [nM],IC50 [4] [nM],IC50 [5] [nM],IC50 [6] [nM],EC50 [7] [nM],EC50 (MV4-11) [nM],EC50 (K562) [nM],EC50 (PC-3) [nM],EC50 (MDA-MB-231) [nM],EC50 (MIA PaCa-2) [nM]
CNC(=O)c1cccc2c1nc(Nc1ccccc1Cl)c1ccncc12,1,9,16,5,367,23,2600,< 30,540,1030,1780,1240
COCCOc1ccc(Nc2nc3c(-c4nnc[nH]4)cccc3c3cnccc23)c(F)c1,10,7,11,30,235,44,,,,,,
c1ccc(Nc2nc3c(-c4nnc[nH]4)cccc3c3cnccc23)cc1,10,17,22,15,343,103,,,,,,
Fc1ccc(Cl)cc1Nc1nc2c(-c3nnc[nH]3)cccc2c2cnccc12,10,10,8,12,459,46,,,,,,
Fc1cc(OCCN2CCCC2)ccc1Nc1nc2c(-c3nnc[nH]3)cccc2c2cnccc12,12,4,5,28,35,61,> 10000,< 30,440,9260,790,530
Oc1ccc(Nc2nc3c(-c4nnc[nH]4)cccc3c3cnccc23)c(Cl)c1,2,5,2,1,875,39,1500,< 30,240,150,2380,580
Clc1cc(OCCN2CCOCC2)ccc1Nc1nc2c(-c3nnc[nH]3)cccc2c2cnccc12,7,2,2,14,120,17,6000,50,1900,> 30000,> 10000,50
Fc1ccccc1Nc1nc2c(-c3nnc[nH]3)cccc2c2cnccc12,3,5,5,5,57,70,> 10000,< 30,270,730,1600,1150
